Laboratory results taken from US11965894B2, “Method of diagnosis of drug induced liver injury” (BIOPREDICTIVE, priority 2017, dated 2024).
Each block holds one molecule with its values, some of them ahead of it.

Key:
[1] = Serum miR-122 by LNA-based relative quantitative PCR in DILI cases; assay type: in vivo, human
Procedure: Total RNA, including miRNA was extracted from 200 μl of serum, using a commercial column-based system (Exiqon, Denmark) following the manufacturer's instructions. RNA synthetic control templates (Exiqon, Denmark) were introduced to provide controls for the quality of the RNA isolation. Serum levels of miR-122 and nine endogenous miRNAs as potential candidates for reference miRNAs were assayed using the Locked Nucleic Acid (LNA™)-based miRNA relative quantitative PCR with a SYBR® Green detection. cDNA synthesis and real time PCR were performed using the miRCURY LNA™ Universal RT cDNA Synthesis Kit (Exiqon, Denmark) and miRCURY LNA™ Universal RT microRNA PCR system (Exiqon), respectively. Two additional RNA spike-ins were also introduced to provide controls for the cDNA synthesis reaction and the PCR. Quantitative PCR was done on the LightCycler® 480 (Roche Applied Science) according to the manufacturer's instructions. The amplification curves were analyzed using the Roche LC software, both for the determination of cycle threshold (Ct) and for melting curve analysis. Ct values were then processed using the analysis software GenEx® (MultiD Analysis AB). […] Ct values for miR-122 were normalized with Ct value of miR-23a-3p. Levels of serum miR-122 were expressed in relative quantities calculated by the equation 2^−ΔCt.

[2] = FibroTest and ActiTest scores in DILI cases; assay type: in vivo, human; details: for FibroTest: single followed DILI case
Procedure: The Fibrotest® combines five markers: alpha2-macroglobulin, haptoglobin, apolipoprotein A2, total bilirubin and gamma-glutamyl transpeptidase (GGT), and adjusts with sex and age. […] It is performed in vitro on a biological sample (blood or serum) that has been harvested from a patient.
The ActiTest is calculated using an original combination of six highly concentrated biochemical markers, which are easy to assess. The ActiTest offers a non invasive alternative for measuring necro inflammatory activity in patients with chronic hepatitis C or B. The ActiTest combines alpha2-macroglobulin, haptoglobin, apolipoprotein A1, total bilirubin, GGT, and ALT, parameters adjusted for patient's age and gender.

[3] = healthy volunteers receiving the drug, ref [13]; cited from earlier work
[4] = in vivo
Procedure: Measures of biochemical markers were performed accordingly to the art, and analyses of ActiTest® and FibroTest® were made as described in the art and in WO 2002/016949.
Comparisons between medians (95% confidence interval [CI]) used the Mann-Whitney test with Bonferroni correction, and the Tukey-Kramer multiple comparison procedure for analyses of variance of the three repeated measures. Correlation between test values was estimated using the Pearson coefficient, expressed with a 95% CI; according to the number of comparisons, only a P value <0.01 was considered significant. NCSS-9 software was used.

[5] = DILI cases attributed to the drug, at inclusion

SMILES: CC(=O)Nc1ccc(O)cc1 [APAP, acetaminophen]
miR-122 compared with MTX cases ([1]; DILI cases, at baseline): significantly lower | miR-122 (lowest) ([1]; single DILI case with severe malnutrition): −0.8 | ActiTest median [2, 5]: 0.99 | FibroTest ([2]; at 8-12 weeks): 0.53 | FibroTest ([2]; one month later): 0.47 | ApoA1 regulation in ALT responders compared with ALT non-responders [3]: three-fold down-regulation

ApoA1 compared with normal ranges observed with methotrexate and others [4]: dramatic decrease | ApoA1 evolution compared with HAPTO [4]: much quicker normalization | ApoA1 median [4]: 0.27 g/L | BILI compared with normal ranges observed with methotrexate and others [4]: dramatic increase | BILI median [4]: 335 µmol/L | HAPTO compared with normal ranges observed with methotrexate and others [4]: dramatic decrease | HAPTO median [4]: 0.10 g/L
SMILES: CCOC(=O)Nc1ccc(NCc2ccc(F)cc2)nc1N [flupirtine]
FibroTest median [2, 5]: 0.99

GGT dynamics compared with other drugs [4]: no decrease
SMILES: CN(Cc1cnc2nc(N)nc(N)c2n1)c1ccc(C(=O)N[C@@H](CCC(=O)O)C(=O)O)cc1 [methotrexate]
miR-122 median ([1]; serum, DILI cases attributed to the drug, at inclusion, relative quantities normalized with miR-23a-3p): 7.54 | FibroTest ([2]; 877 days later): 0.52 | FibroTest ([2]; at 8-12 weeks): 0.51

GGT median [4]: 678 IU/L
SMILES: CCN1CCN(C(=O)N[C@@H](C(=O)N[C@@H]2C(=O)N3[C@@H]2SC(C)(C)[C@@H]3C(=O)O)c2ccccc2)C(=O)C1=O [piperacillin, piperacillin-tazobactam]
